In PubChem BioAssay (NCI):
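Compound exposure: 48 hours, 5 concentrations, 96-well plates. TGI: concentration producing complete growth inhibition.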

Columns and labels:
Experiment in all cases: NCI tumour cell line growth inhibition, 48 h
SN12C renal = test system: SN12C renal
SR leukemia = test system: SR leukemia
PC-3 prostate = test system: PC-3 prostate
RXF 393 renal = test system: RXF 393 renal
SK-MEL-28 melanoma = test system: SK-MEL-28 melanoma
UACC-62 melanoma = test system: UACC-62 melanoma
UO-31 renal = test system: UO-31 renal
MOLT-4 leukemia = test system: MOLT-4 leukemia
IGROV1 ovarian = test system: IGROV1 ovarian
SK-MEL-5 melanoma = test system: SK-MEL-5 melanoma
SK-MEL-2 melanoma = test system: SK-MEL-2 melanoma
MDA-N = test system: MDA-N
TK-10 renal = test system: TK-10 renal
HL-60(TB) leukemia = test system: HL-60(TB) leukemia
SNB-75 CNS = test system: SNB-75 CNS
ACHN renal = test system: ACHN renal
OVCAR-8 ovarian = test system: OVCAR-8 ovarian
EKVX NSCLC = test system: EKVX NSCLC
MDA-MB-435 = test system: MDA-MB-435
UACC-257 melanoma = test system: UACC-257 melanoma
MDA-MB-231 breast = test system: MDA-MB-231 breast
HS 578T breast = test system: HS 578T breast
M14 melanoma = test system: M14 melanoma
K-562 leukemia = test system: K-562 leukemia
786-0 renal = test system: 786-0 renal
HT29 colon = test system: HT29 colon
SF-268 CNS = test system: SF-268 CNS
SNB-19 CNS = test system: SNB-19 CNS
SK-OV-3 ovarian = test system: SK-OV-3 ovarian
MCF7 breast = test system: MCF7 breast
OVCAR-5 ovarian = test system: OVCAR-5 ovarian
RPMI-8226 leukemia = test system: RPMI-8226 leukemia
HCT-15 colon = test system: HCT-15 colon
DU-145 prostate = test system: DU-145 prostate
SW-620 colon = test system: SW-620 colon
KM12 colon = test system: KM12 colon
A498 renal = test system: A498 renal
CAKI-1 renal = test system: CAKI-1 renal
LOX IMVI melanoma = test system: LOX IMVI melanoma
HCT-116 colon = test system: HCT-116 colon
HOP-62 NSCLC = test system: HOP-62 NSCLC
CCRF-CEM leukemia = test system: CCRF-CEM leukemia
HOP-92 NSCLC = test system: HOP-92 NSCLC
A549 NSCLC = test system: A549 NSCLC
U251 CNS = test system: U251 CNS

Measured: TGI

CCOC(=O)/C=C/c1nc(C#N)c(N)o1
> 100 µM: all assays above
